Source: EP4667483A1, “HUMAN TRANSFERRIN RECEPTOR-BINDING PEPTIDE” (JCR Pharmaceuticals Co., Ltd., priority 2023, dated 2024)
Numbered stars: 1 amine (or outer) side, 2 acyl side, 3 side chain; on linkers, the order of the positions; unused ones are H or OH. Bridge positions count the residues as written; N and C are the ends. Square brackets hold non-standard residues; d marks the D form. Side chains are listed from the residue outwards. Peptide text beside a SMILES is read from it. * marks the point of attachment. Trp(1-CH2COOH) = N[C@@H](Cc1cn(CC(=O)O)c2ccccc12)C(=O)O; CH2CON(CH2CH2)2NCH2COOH = O=C(O)CN1CCN(C(=O)C*)CC1; NMePhe(4-COOH) = CN[C@@H](Cc1ccc(C(=O)O)cc1)C(=O)O; X1 = O=C([C@H](Cc1cccc(C(=O)[*:3])c1)N[*:1])[*:2]; Nle(6-morpholino) = N[C@@H](CCCCN1CCOCC1)C(=O)O; Phe(3-COOH) = N[C@@H](Cc1cccc(C(=O)O)c1)C(=O)O; Trp(7-aza) = N[C@@H](Cc1c[nH]c2ncccc12)C(=O)O; NH(CH2CH2O)8Me = COCCOCCOCCOCCOCCOCCOCCOCCN*; NMePhe(3-Cl) = CN[C@@H](Cc1cccc(Cl)c1)C(=O)O; Piperazinyl(4-CH2COOH) = O=C(O)CN1CCN(*)CC1; 3Pal(6-NH2) = Nc1ccc(C[C@H](N)C(=O)O)cn1; NMeW = CN[C@@H](Cc1c[nH]c2ccccc12)C(=O)O; NMeY = CN[C@@H](Cc1ccc(O)cc1)C(=O)O; Nva(3-Et) = CCC(CC)[C@H](N)C(=O)O; NMeF = CN[C@@H](Cc1ccccc1)C(=O)O; 4Pal = N[C@@H](Cc1ccncc1)C(=O)O; PEG4 = NCCOCCOCCOCCOCCC(=O)O; Carboxymethyl = O=C(O)C*; CO = O=C([*:1])[*:2]

Legend:
[1] = target: T1, human transferrin receptor (hTfR) (Homo sapiens, UniProt P02786); experiment: SPR measurement under pH 7.4 conditions (Biacore T200, CM3 chip, hTfR captured by His Tag antibody); type: binding; settings: read-out: hTfR SPR pH7.4 KD
Procedure: (§1) Molecular interactions between the synthesized peptides and the transferrin receptor (hTfR) were evaluated by surface plasmon resonance (SPR) using the following method. The specific assay procedure is described below.
An CM3 sensor chip (Cytiva) was inserted into BiacoreT200 (Cytiva), then a priming operation was performed three times by using a running buffer: HBS-P+, pH7.4 (Cytiva), and an equilibrium state was created at a flow rate of […]. Ligand immobilization was performed at a flow rate of 10 µL/min. After mixing 50 µL each of 60 mM EDC solution (Cytiva) and 650 mM NHS solution (Cytiva), the mixture was reacted at a flow rate of 10 µL/min for 420 seconds. 150 µL of […] THE His Tag Antibody, mAb, Mouse (GenScript) was prepared by diluting with 10 mM acetic acid solution (pH 5.0), and reacted at a flow rate of 10 µL/ min for 420 seconds. Then, THE His Tag Antibody, mAb, Mouse (GenScript) was immobilized as a capture molecule on the CM3 sensor chip. After immobilization, capping was performed by reacting with 1.0 M ethanolamine solution (Cytiva) at a flow rate of 10 µL/min for 420 seconds. 300 nM hTfR was captured at a flow rate of 10 µL/min, a peptide solution prepared at 10 mM in DMSO was diluted with running buffer to achieve a final concentration of 10 µM, and peptide solutions at 250 nM, 125 nM, 62.5 nM, 25 nM, and 12.5 nM were prepared. . The peptide samples were reacted at a flow late of 30 µL/min for 120 seconds, followed by dissociation for 600 seconds. The kinetics of the peptide against hTfR was obtained by SPR measurement for the above samples.
(§2) The kinetic evaluation model was single-cycle kinetics, and curve fitting was performed using Biacore T200 Evaluation Software Version 3.0 (Cytiva). The binding of the peptide to hTfR was evaluated by performing curve fitting on the obtained sensorgram by the least squares method and obtaining the kon value, the koff value, and the KD value.

[2] = target: T1, human transferrin receptor (hTfR); experiment: SPR measurement under pH 6.0 conditions (Biacore T200, NTA chip, immobilized hTfR); type: binding; settings: read-out: hTfR SPR pH6.0 KD
Procedure: as §1
An NTA sensor chip (Cytiva) was inserted in a Biacore T200 (Cytiva), a priming operation was performed 3 times with a running buffer: HBS-P+ pH 6.0 (Cytiva), and an equilibrium state was created at a flow rate of 30 µL/min. A ligand immobilization operation was carried out at a flow rate of 10 µL/min.
The surface of the NTA sensor chip was washed with 350 mM EDTA solution, nickel ions were loaded into the carbomethyldextran chains of the sensor chip with a 500 µM aqueous nickel chloride solution, and then washing was performed with 3 mM EDTA solution. After mixing 50 µL of each of 60 mM EDC solution (Cytiva) and 650 mM NHS solution (Cytiva), the mixture was reacted for 420 seconds at a flow rate of 10 µL/min. 150 µL of 0.2 µM hTfR solution was prepared by diluting with 10 mM acetic acid solution (pH 5.0), and reacted for 420 seconds at a flow rate of 10 µL/min to immobilize hTfR on the NTA sensor chip. For the human transferrin receptor (hTfR), the recombinant hTfR described in Example 2 of WO2018/124121 was used. After immobilization, capping was performed by reacting with 1.0 M ethanolamine aqueous solution (Cytiva) at a flow rate of 10 µL/min for 420 seconds. Peptide lysate prepared in DMSO to 10 mM was diluted with the running buffer to a final concentration of 10 µM peptide lysate, and then peptide solutions of 250 nM, 125 nM, 62.5 nM, 25 nM, and 12.5 nM were prepared. The kinetics of the peptide against hTfR was obtained by SPR measurement using the above samples.
as §2

[3] = SPR, pH 7.4, peptide with the linker named in the table
[4] = SPR, pH 6.0, peptide with the linker named in the table

T1 sequence (P02786 whole entry): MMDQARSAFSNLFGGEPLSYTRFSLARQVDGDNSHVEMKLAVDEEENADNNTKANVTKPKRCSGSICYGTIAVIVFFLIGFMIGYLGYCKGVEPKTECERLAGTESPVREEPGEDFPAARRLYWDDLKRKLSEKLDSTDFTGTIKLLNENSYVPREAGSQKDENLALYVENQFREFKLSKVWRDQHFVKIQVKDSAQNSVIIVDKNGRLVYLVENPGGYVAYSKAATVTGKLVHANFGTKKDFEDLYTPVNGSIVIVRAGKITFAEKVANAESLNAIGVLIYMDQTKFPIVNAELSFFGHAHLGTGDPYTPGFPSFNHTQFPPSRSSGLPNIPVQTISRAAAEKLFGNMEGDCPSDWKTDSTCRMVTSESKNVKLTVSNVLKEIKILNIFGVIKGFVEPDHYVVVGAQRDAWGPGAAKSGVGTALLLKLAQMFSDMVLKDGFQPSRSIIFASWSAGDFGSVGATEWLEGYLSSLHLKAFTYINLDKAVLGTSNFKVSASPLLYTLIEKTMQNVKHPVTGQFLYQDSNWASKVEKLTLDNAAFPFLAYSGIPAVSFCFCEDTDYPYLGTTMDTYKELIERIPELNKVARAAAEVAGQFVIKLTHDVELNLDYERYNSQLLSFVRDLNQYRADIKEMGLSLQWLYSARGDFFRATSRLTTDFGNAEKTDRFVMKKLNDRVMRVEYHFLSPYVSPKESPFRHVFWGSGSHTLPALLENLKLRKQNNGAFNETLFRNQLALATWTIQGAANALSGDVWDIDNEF

SMILES | Kd ([1]; pH 7.4, single-cycle kinetics) [nM] | Kd ([2]; pH 6.0, single-cycle kinetics) [nM] | Kd [1, 3] [nM] | Kd [2, 4] [nM]
CC[C@H](C)[C@@H]1NC(=O)[C@H](Cc2ccc(OCC(=O)O)cc2)NC(=O)[C@H](Cc2ccc(N)nc2)NC(=O)[C@H](CC(N)=O)NC(=O)[C@H](Cc2c[nH]c3ncccc23)NC(=O)[C@H](C(C)C)NC(=O)[C@H](Cc2cccc(Cl)c2)N(C)C(=O)[C@H](C(C)C)NC(=O)[C@H](C)NC(=O)CSC[C@@H](C(=O)NCCOCCOCCOCCOCCC(N)=O)NC(=O)[C@H](Cc2ccc(O)cc2)N(C)C(=O)[C@H](Cc2ccncc2)NC(=O)[C@H](CCCCN2CCOCC2)NC(=O)[C@H](CCCCNC(=O)N2CCN(CC(=O)O)CC2)NC(=O)[C@H]([C@@H](C)CC)NC1=O [compound 15] ({CH2CO}-AV[NMePhe(3-Cl)]V[Trp(7-aza)]N[3Pal(6-NH2)]Y(Carboxymethyl)IIK([CO-Piperazinyl(4-CH2COOH)])[Nle(6-morpholino)][4Pal][NMeY]C[PEG4]-NH2; thioether N-15) | 15.9 | 102 |  | 
CC[C@H](C)[C@@H]1NC(=O)[C@H](Cc2ccc(OC)cc2)NC(=O)[C@H](Cc2ccc(O)cc2)NC(=O)[C@H](CC(N)=O)NC(=O)[C@H](Cc2c[nH]c3ncccc23)NC(=O)[C@H](C(C)C)NC(=O)[C@H](Cc2cccc(Cl)c2)N(C)C(=O)[C@H](C(C)C)NC(=O)[C@H](C)NC(=O)CSC[C@@H](C(=O)NCCOCCOCCOCCOCCC(N)=O)NC(=O)[C@H](Cc2ccc(O)cc2)N(C)C(=O)[C@H](CCC(=O)NCCOCCOCCOCCOCCC(=O)O)NC(=O)[C@H](CCCNC(=N)N)NC(=O)[C@H](CCC(=O)NCCOCCOCCOCCOCCC(=O)O)NC(=O)[C@H]([C@@H](C)CC)NC1=O [compound 145] ({CH2CO}-AV[NMePhe(3-Cl)]V[Trp(7-aza)]NYY(Me)IIE(PEG4)RE(PEG4)[NMeY]C[PEG4]-NH2; thioether N-15) |  |  | 48.5 | 199
CCC(CC)[C@@H]1NC(=O)[C@H](Cc2ccc(OCC(=O)O)cc2)NC(=O)[C@H](Cc2ccc(N)nc2)NC(=O)[C@H](CC(N)=O)NC(=O)[C@H](Cc2c[nH]c3ncccc23)NC(=O)[C@H](C(C)C)NC(=O)[C@H](Cc2cccc(Cl)c2)N(C)C(=O)[C@H](C(C)C)NC(=O)[C@H](C)NC(=O)CSC[C@@H](C(=O)NCCOCCOCCOCCOCCC(N)=O)NC(=O)[C@H](Cc2ccc(C(=O)O)cc2)N(C)C(=O)[C@H](Cc2cccc(C(=O)O)c2)NC(=O)[C@H](CCCNC(=N)N)NC(=O)[C@H](CCC(N)=O)NC(=O)[C@H]([C@@H](C)CC)NC1=O [compound 45] ({CH2CO}-AV[NMePhe(3-Cl)]V[Trp(7-aza)]N[3Pal(6-NH2)]Y(Carboxymethyl)[Nva(3-Et)]IQR[Phe(3-COOH)][NMePhe(4-COOH)]C[PEG4]-NH2; thioether N-15) | 75.5 | 869 |  | 
CC[C@H](C)[C@@H]1NC(=O)[C@H](Cc2ccc(OCC(=O)N3CCN(CC(=O)O)CC3)cc2)NC(=O)[C@H](Cc2ccc(O)cc2)NC(=O)[C@H](CC(N)=O)NC(=O)[C@H](Cc2c[nH]c3ccccc23)NC(=O)[C@H](C(C)C)NC(=O)[C@H](Cc2cccc(Cl)c2)N(C)C(=O)[C@H](C(C)C)NC(=O)[C@H](C)NC(=O)CSC[C@@H](C(=O)NCCOCCOCCOCCOCCC(N)=O)NC(=O)[C@H](Cc2ccc(O)cc2)N(C)C(=O)[C@H](Cc2cccc(C(=O)O)c2)NC(=O)[C@H](CCCCN2CCOCC2)NC(=O)[C@H](CCC(=O)NCCOCCOCCOCCOCCOCCOCCOCCOC)NC(=O)[C@H]([C@@H](C)CC)NC1=O [compound 31] ({CH2CO}-AV[NMePhe(3-Cl)]VWNYY(CH2CON(CH2CH2)2NCH2COOH)IIE(NH(CH2CH2O)8Me)[Nle(6-morpholino)][Phe(3-COOH)][NMeY]C[PEG4]-NH2; thioether N-15) | 2.43 | 17.1 |  | 
CC[C@H](C)[C@@H]1NC(=O)[C@H](Cc2ccc(OCC(=O)N3CCN(CC(=O)O)CC3)cc2)NC(=O)[C@H](Cc2ccc(O)cc2)NC(=O)[C@H](CC(N)=O)NC(=O)[C@H](Cc2c[nH]c3ncccc23)NC(=O)[C@H](C(C)C)NC(=O)[C@H](Cc2cccc(Cl)c2)N(C)C(=O)[C@H](C(C)C)NC(=O)[C@H](C)NC(=O)CSC[C@@H](C(=O)NCCOCCOCCOCCOCCC(N)=O)NC(=O)[C@H](Cc2ccc(O)cc2)N(C)C(=O)[C@H](Cc2ccncc2)NC(=O)[C@H](CCCNC(=N)N)NC(=O)[C@H](CCC(N)=O)NC(=O)[C@H]([C@@H](C)CC)NC1=O [compound 16] | 2.94 | 40.3 |  | 
CC[C@H](C)[C@@H]1NC(=O)[C@H](Cc2ccc(OC)cc2)NC(=O)[C@H](Cc2ccc(O)cc2)NC(=O)[C@H](CC(N)=O)NC(=O)[C@H](Cc2c[nH]c3ncccc23)NC(=O)[C@H](C(C)C)NC(=O)[C@H](Cc2cccc(Cl)c2)N(C)C(=O)[C@H](C(C)C)NC(=O)[C@H](C)NC(=O)CSC[C@@H](C(=O)NCCOCCOCCOCCOCCC(N)=O)NC(=O)[C@H](Cc2ccc(O)cc2)N(C)C(=O)[C@H](Cc2cccc(C(=O)NCCOCCOCCOCCOCCC(=O)O)c2)NC(=O)[C@H](CCCNC(=N)N)NC(=O)[C@H](CCC(=O)NCCOCCOCCOCCOCCC(=O)O)NC(=O)[C@H]([C@@H](C)CC)NC1=O [compound 146] |  |  | 2.75 | 11.4
CCC(CC)[C@@H]1NC(=O)[C@H](Cc2ccc(O)cc2)NC(=O)[C@H](Cc2ccc(O)cc2)NC(=O)[C@H](CC(N)=O)NC(=O)[C@H](Cc2c[nH]c3ccccc23)N(C)C(=O)[C@H](C(C)C)NC(=O)[C@H](Cc2ccccc2)N(C)C(=O)[C@H](C(C)C)NC(=O)[C@H](C)NC(=O)CSC[C@@H](C(=O)NCCOCCOCCOCCOCCC(N)=O)NC(=O)[C@H](Cc2ccc(C(=O)O)cc2)N(C)C(=O)[C@H](Cc2cccc(C(=O)NCCOCCOCCOCCOCCC(=O)O)c2)NC(=O)[C@H](CCCNC(=N)N)NC(=O)[C@H](CCCCN)NC(=O)[C@H]([C@@H](C)CC)NC1=O [compound 122] ({CH2CO}-AV[NMeF]V[NMeW]NYY[Nva(3-Et)]IKR[X1](PEG4)[NMePhe(4-COOH)]C[PEG4]-NH2; thioether N-15) |  |  | 5.19 | 15.3
CCC(CC)[C@@H]1NC(=O)[C@H](Cc2ccc(OC)cc2)NC(=O)[C@H](Cc2ccc(O)cc2)NC(=O)[C@H](CC(N)=O)NC(=O)[C@H](Cc2c[nH]c3ccccc23)NC(=O)[C@H](C(C)C)NC(=O)[C@H](Cc2cccc(Cl)c2)N(C)C(=O)[C@H](C(C)C)NC(=O)[C@H](C)NC(=O)CSC[C@@H](C(=O)NCCOCCOCCOCCOCCC(N)=O)NC(=O)[C@H](Cc2ccc(C(=O)O)cc2)N(C)C(=O)[C@H](Cc2cccc(C(=O)NCCOCCOCCOCCOCCC(=O)O)c2)NC(=O)[C@H](CCCNC(=N)N)NC(=O)[C@H](CCC(N)=O)NC(=O)[C@H]([C@@H](C)CC)NC1=O [compound 111] ({CH2CO}-AV[NMePhe(3-Cl)]VWNYY(Me)[Nva(3-Et)]IQR[X1](PEG4)[NMePhe(4-COOH)]C[PEG4]-NH2; thioether N-15) |  |  | 2.06 | 3.47
CC[C@H](C)[C@@H]1NC(=O)[C@H](Cc2ccc(OCC(=O)N3CCN(CC(=O)O)CC3)cc2)NC(=O)[C@H](Cc2ccc(O)cc2)NC(=O)[C@H](CC(N)=O)NC(=O)[C@H](Cc2cn(CC(=O)O)c3ccccc23)NC(=O)[C@H](C(C)C)NC(=O)[C@H](Cc2cccc(Cl)c2)N(C)C(=O)[C@H](C(C)C)NC(=O)[C@H](C)NC(=O)CSC[C@@H](C(=O)NCCOCCOCCOCCOCCC(N)=O)NC(=O)[C@H](Cc2ccc(O)cc2)N(C)C(=O)[C@H](Cc2ccncc2)NC(=O)[C@H](CCCCN2CCOCC2)NC(=O)[C@H](CCCCNC(=O)N2CCN(CC(=O)O)CC2)NC(=O)[C@H]([C@@H](C)CC)NC1=O [compound 33] ({CH2CO}-AV[NMePhe(3-Cl)]V[Trp(1-CH2COOH)]NYY(CH2CON(CH2CH2)2NCH2COOH)IIK([CO-Piperazinyl(4-CH2COOH)])[Nle(6-morpholino)][4Pal][NMeY]C[PEG4]-NH2; thioether N-15) | 8.5 | 22.1 |  | 
